According to PMC10011747, “Targeting androgen receptor and the variants by an orally bioavailable Proteolysis Targeting Chimeras compound in castration resistant prostate cancer” (eBioMedicine, 2023):
Like-named read-outs stand apart in the source and are kept apart here. One block for each compound: values may come before it.

Legend:
[1] = molecular target: T1, full-length AR (Homo sapiens, UniProt P10275, T878A); experiment: AR degradation by western blot in prostate cancer cell lines; type: cell-based; conditions: LNCaP cells; for DC50: 24 h treatment; for Dmax at 20 µM: maximum degradation at 20 μM
T1 construct: calculated based on normalized full-length AR and AR-V7 band intensity; endogenous in cells; host or cells: LNCaP, CWR22Rv1, VCaP
T1 sequence (P10275 1-920 T878A): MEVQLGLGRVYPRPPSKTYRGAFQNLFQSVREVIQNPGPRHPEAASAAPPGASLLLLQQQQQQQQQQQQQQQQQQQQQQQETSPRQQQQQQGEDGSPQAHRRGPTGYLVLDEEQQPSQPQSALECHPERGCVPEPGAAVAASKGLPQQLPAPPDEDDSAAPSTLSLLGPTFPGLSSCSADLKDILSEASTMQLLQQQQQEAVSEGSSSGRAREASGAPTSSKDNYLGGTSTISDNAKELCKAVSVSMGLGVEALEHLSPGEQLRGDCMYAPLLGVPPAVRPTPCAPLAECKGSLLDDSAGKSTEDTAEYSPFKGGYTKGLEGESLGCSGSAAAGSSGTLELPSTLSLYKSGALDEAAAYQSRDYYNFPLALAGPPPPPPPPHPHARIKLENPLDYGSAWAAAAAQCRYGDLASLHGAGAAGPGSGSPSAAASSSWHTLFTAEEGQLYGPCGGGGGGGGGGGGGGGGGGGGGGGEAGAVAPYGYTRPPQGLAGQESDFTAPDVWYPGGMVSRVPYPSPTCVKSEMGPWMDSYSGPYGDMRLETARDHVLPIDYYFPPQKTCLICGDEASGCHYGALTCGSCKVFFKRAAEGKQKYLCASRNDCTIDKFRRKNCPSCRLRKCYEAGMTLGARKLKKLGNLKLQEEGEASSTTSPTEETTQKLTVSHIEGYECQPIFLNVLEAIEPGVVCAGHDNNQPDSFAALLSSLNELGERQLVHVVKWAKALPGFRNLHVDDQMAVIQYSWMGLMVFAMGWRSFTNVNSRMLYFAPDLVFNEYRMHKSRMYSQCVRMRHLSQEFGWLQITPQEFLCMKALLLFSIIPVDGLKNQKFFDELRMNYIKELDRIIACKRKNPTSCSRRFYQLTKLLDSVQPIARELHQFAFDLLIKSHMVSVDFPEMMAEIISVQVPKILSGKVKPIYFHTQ
Method: (§1) To obtain total lysates, cells were lysed in RIPA buffer (50 mM Tris–HCl pH 8.0, 150 mM NaCl, 1% NP-40, 0.5% Na-deoxycholate, 0.5% SDS plus protease inhibitors). The lysates were resolved by SDS-polyacrylamide gel electrophoresis, and the protein expression was analyzed by western blotting using primary antibodies against AR (Millipore Cat# 06-680, RRID:AB_310214), AR-V7 (RevMAb Biosciences Cat# 31-1109-00, RRID:AB_2716436), GAPDH (Cell Signaling Technology Cat# 2118, RRID:AB_561053) and Actin (Sigma–Aldrich Cat# A5441, RRID:AB_476744). pLenti4/TO/Flag-AR or pLenti4/TO/Flag-TC-AR plasmid was co-transfected with HA-ubiquitin plasmid into 293T cells. 24 h after transfection, the cells were treated with 10 μM of the PROTAC compounds for 16 h, followed by 4-h treatment of 5 μM MG132. The cells were lysed with lysis buffer (50 mM Tris–HCl pH7.5, 150 mM NaCl, 0. 5% Triton X-100, 10% glycerol, 1 mM EDTA plus protease inhibitors) containing 1 ng/mL of N-ethylmaleimide, followed by immunoprecipitation with anti-Flag M2 (Sigma–Aldrich Cat# F3165, RRID:AB_259529) antibody. The ubiquitinated AR was then detected by western blotting using anti-HA (Sigma–Aldrich Cat# H3663, RRID:AB_262051) antibody.
(§2) Fig. 1 PROTAC-based AR degraders ITRI-90, ITRI-125 and ITRI-126 reduce AR and AR-V7 proteins in prostate cancer cell lines. (a) Chemical structure of the PROTAC AR degraders. (b) Representative western blots of AR protein levels in LNCaP, CWR22Rv1 and VCaP cells treated with the PROTAC degraders for 24 h. AR was detected by N-terminal antibody which also detects C-terminal truncated AR-V(ΔLBD) in CWR22Rv1 cells. AR-V7 specific antibody was used for AR-V7 detection. 4%–12% gradient gel was used to separate different species of AR-V(ΔLBD) near 75 kDa in CWR22Rv1 cell lysates. DC50 indicating the concentration required to achieve 50% degradation, was calculated based on normalized full-length AR and AR-V7 band intensity. Dmax is the maximum degradation achieved at 20 μM compound treatment. TEXT PRINTED IN THE PICTURE: (a) ITRI-90: AR DC50 (μM) LNCaP: 2.12 ± 0.93; AR DC50 (μM) CWR22Rv1: 5.73 ± 2.28; AR DC50 (μM) VCaP: 8.67 ± 4.87; AR-V7 DC50 (μM) CWR22Rv1: 4.72 ± 2.52; AR-V7 DC50 (μM) VCaP: 0.29 ± 0.15; AR Dmax (%) LNCaP: 88; AR Dmax (%) CWR22Rv1: 98; AR Dmax (%) VCaP: 90; AR-V7 Dmax (%) CWR22Rv1: 100; AR-V7 Dmax (%) VCaP: 63 | (a) ITRI-125: AR DC50 (μM) LNCaP: 6.10 ± 4.43; AR DC50 (μM) CWR22Rv1: 6.64 ± 1.87; AR DC50 (μM) VCaP: 9.05 ± 3.75; AR-V7 DC50 (μM) CWR22Rv1: 1.89 ± 1.06; AR-V7 DC50 (μM) VCaP: 0.52 ± 0.37; AR Dmax (%) LNCaP: 71; AR Dmax (%) CWR22Rv1: 96; AR Dmax (%) VCaP: 85; AR-V7 Dmax (%) CWR22Rv1: 99; AR-V7 Dmax (%) VCaP: 67 | (a) ITRI-126: AR DC50 (μM) LNCaP: 3.41 ± 3.13; AR DC50 (μM) CWR22Rv1: 0.11 ± 0.02; AR DC50 (μM) VCaP: 0.851 ± 0.43; AR-V7 DC50 (μM) CWR22Rv1: 0.011 ± 0.003; AR-V7 DC50 (μM) VCaP: 0.43 ± 0.19; AR Dmax (%) LNCaP: 99; AR Dmax (%) CWR22Rv1: 74; AR Dmax (%) VCaP: 94; AR-V7 Dmax (%) CWR22Rv1: 91; AR-V7 Dmax (%) VCaP: 82

[2] = test system: full-length AR; experiment: as above; type: cell-based, human; conditions: for sustainability of AR and AR-V(ΔLBD) degradation after drug washout: 10 μM for 24 h then washout, LNCaP, CWR22Rv1, VCaP; for AR degradation: CWR22Rv1 cells (Table S1); for DC50: 24 h treatment; for AR Dmax CWR22Rv1 / AR Dmax VCaP: maximum degradation at 20 μM
Method: as §1, §2

[3] = CWR22Rv1 cells, read-out: AR DC50 CWR22Rv1
[4] = VCaP cells, read-out: AR DC50 VCaP

Structure (SMILES): Cc1ncsc1-c1ccc(CNC(=O)[C@@H]2C[C@H](O)CN2C(=O)[C@@H](NC(=O)COCCCCOc2ccc(C3CCN(C4=Nn5c(nnc5C(F)(F)F)CC4)CC3)cc2)C(C)(C)C)cc1 [ITRI-90, (2S,4S)-1-((S)-3,3-dimethyl-2-(2-(4-(4-(1-(3-(trifluoromethyl)-7,8-dihydro-[1,2,4]triazolo[4,3-b]pyridazin-6-yl)piperidin-4-yl)phenoxy)butoxy)acetamido)butanoyl)-4-hydroxy-N-(4-(4-methylthiazol-5-yl)benzyl)pyrrolidine-2-carboxamide]
- DC50 [1]: 2.12 ± 0.93 µM
- Dmax at 20 µM [1]: 88%
- sustainability of AR and AR-V(ΔLBD) degradation after drug washout [2]: sustain low protein levels up to 24 h after drug washout
- AR degradation [2]: 98.28%
- DC50 [2, 3]: 5.73 ± 2.28 µM
- AR Dmax CWR22Rv1 ([2]; CWR22Rv1 cells): 98%
- DC50 [2, 4]: 8.67 ± 4.87 µM
- AR Dmax VCaP ([2]; VCaP cells): 90%

Structure (SMILES): O=C1CCC(N2Cc3c(NC(=O)COCCCCOc4ccc(C5CCN(C6=Nn7c(nnc7C(F)(F)F)CC6)CC5)cc4)cccc3C2=O)C(=O)N1 (centres unmarked) [ITRI-126, N-(2-(2,6-dioxopiperidin-3-yl)-1-oxoisoindolin-4-yl)-2-(4-(4-(1-(3-(trifluoromethyl)-7,8-dihydro-[1,2,4]triazolo[4,3-b]pyridazin-6-yl)piperidin-4-yl)phenoxy)butoxy)acetamide]
- DC50 [1]: 3.41 ± 3.13 µM
- Dmax at 20 µM [1]: 99%
- sustainability of AR and AR-V(ΔLBD) degradation after drug washout [2]: sustain low protein levels up to 24 h after drug washout
- DC50 [2, 3]: 0.11 ± 0.02 µM
- AR Dmax CWR22Rv1 ([2]; CWR22Rv1 cells): 74%
- DC50 [2, 4]: 0.851 ± 0.43 µM
- AR Dmax VCaP ([2]; VCaP cells): 94%

- DC50 [1]: 6.1 ± 4.43 µM
- Dmax at 20 µM [1]: 71%
- DC50 [2, 3]: 6.64 ± 1.87 µM
- DC50 [2, 4]: 9.05 ± 3.75 µM
Structure (SMILES): Cc1ncsc1-c1ccc(CNC(=O)[C@@H]2C[C@H](O)CN2C(=O)[C@@H](NC(=O)COCCCCCCOc2ccc(C3CCN(C4=Nn5c(nnc5C(F)(F)F)CC4)CC3)cc2)C(C)(C)C)cc1 [ITRI-125, (2S,4S)-1-((S)-3,3-dimethyl-2-(2-(6-(4-(1-(3-(trifluoromethyl)-7,8-dihydro-[1,2,4]triazolo[4,3-b]pyridazin-6-yl)piperidin-4-yl)phenoxy)hexyloxy)acetamido)butanoyl)-4-hydroxy-N-(4-(4-methylthiazol-5-yl)benzyl)pyrrolidine-2-carboxamide]
- sustainability of AR and AR-V(ΔLBD) degradation after drug washout [2]: lost the degrading effects on both full-length and truncated AR within 8 h post drug removal
- AR degradation [2]: 92.53%
- AR Dmax CWR22Rv1 ([2]; CWR22Rv1 cells): 96%
- AR Dmax VCaP ([2]; VCaP cells): 85%
